Experimental findings from ChEMBL document CHEMBL6127131, “Design, Synthesis, and Biological Evaluation of New Selective PDE4 Inhibitors for Topical Treatment of Psoriasis” (J Med Chem, 2024) are described below.

The target in data set [1] is T1, 3',5'-cyclic-AMP phosphodiesterase 4D (Homo sapiens, UniProt Q08499). Description: Inhibition of PDE4D7 (unknown origin).
Data set [2] deals with D(2) dopamine receptor (Homo sapiens) (UniProt P14416). Description: Inhibition of D2S (unknown origin) at 10 uM relative to control.
D(2) dopamine receptor (Homo sapiens), sequence (P14416 whole entry): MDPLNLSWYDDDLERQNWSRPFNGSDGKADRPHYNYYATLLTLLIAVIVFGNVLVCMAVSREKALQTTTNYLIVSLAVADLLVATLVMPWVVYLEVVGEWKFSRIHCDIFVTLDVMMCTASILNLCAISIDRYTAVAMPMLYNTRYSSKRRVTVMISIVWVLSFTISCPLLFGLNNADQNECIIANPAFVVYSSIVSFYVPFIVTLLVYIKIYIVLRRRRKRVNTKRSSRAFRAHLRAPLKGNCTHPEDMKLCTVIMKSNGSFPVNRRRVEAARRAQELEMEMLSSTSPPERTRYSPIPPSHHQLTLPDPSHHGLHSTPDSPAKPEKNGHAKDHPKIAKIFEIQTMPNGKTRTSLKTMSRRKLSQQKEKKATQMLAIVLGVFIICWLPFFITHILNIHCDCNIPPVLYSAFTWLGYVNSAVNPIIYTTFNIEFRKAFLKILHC
The subject of data set [3] is RAW264.7. Description: Upregulation of EPAC1 protein expression in mouse RAW264.7 cells at 5 to 20 uM preincubated for 12 hrs followed by LPS stimulation for 4 hrs by Western blotting analysis. The data set is classed as functional, cell-based. As to conditions: dose 5-20 µM, time 16.0 hrs.
The nature of data set [4]: Metabolic stability in human liver microsomes assessed as half-life preincubated for 2 hrs followed by NADPH regenerating agent addition and measured upto 4 hrs by LC-MS analysis. The format is ADME, Microsome. The following applies: time < 6 hrs.
The species named for data set [5] is Mus musculus. Description: Antiinflammatory activity against imiquimod-induced psoriasis in BALB/c mouse model assessed as improvement in clinical features of skin lesions pretreated with IMQ for 4 hrs followed by compound addition once daily from day 2 to 8. The format is functional, organism-based. As to conditions: dose 0.3-1.2 %, time 7.0 day.
A short description of data set [6]: AUC(0 to t) in ICR(CD-1) mouse at 10 mg/kg, po measured upto 24 hrs by LC-MS/MS analysis. The following applies: in vivo. The data set is classed as ADME, organism-based.
Data set [7] has as its system Mus musculus. The experiment in a line: Antiinflammatory activity against imiquimod-induced psoriasis in BALB/c mouse model assessed as reduction in immune cell infiltration at 0.3 to 1.2% administration as ointment pretreated with IMQ for 4 hrs followed by compound addition once daily from day 2 to 8 by H and E staining based assay. The format is functional, organism-based. As to conditions: dose 0.3-1.2 %, time 7.0 day.

Data set [8] can be described thus: Half-life in ICR(CD-1) mouse at 5 mg/kg, iv measured upto 24 hrs by LC-MS/MS analysis. The data set is classed as ADME, organism-based. The following applies: in vivo.
Data set [9] is described as follows: Metabolic stability in monkey liver microsomes assessed as half-life preincubated for 2 hrs followed by NADPH regenerating agent addition and measured upto 4 hrs by LC-MS analysis. The format is ADME, Macaca mulatta, Microsome. The following applies: rhesus monkey, time < 6 hrs.
The nature of data set [10]: Cytotoxicity against mouse RAW264.7 cells incubated for 24 hrs by CCK8 assay. The format is toxicity, cell-based.
The nature of data set [11]: Drug concentration in ICR(CD-1) mouse blood at 1.2% administered topically and measured after 1 hr by LC-MS/MS analysis. The format is ADME, tissue-based. As to conditions: topical or ocular, route top, read-out: Ct.
Data set [12] can be described thus: Initial plasma concentration in ICR(CD-1) mouse at 5 mg/kg, iv measured upto 24 hrs by LC-MS/MS analysis. The data set is classed as ADME, organism-based.
A short description of data set [13]: Clearance in ICR(CD-1) mouse at 5 mg/kg, iv measured upto 24 hrs by LC-MS/MS analysis. The data set is classed as ADME, organism-based. The following applies: in vivo.
The nature of data set [14]: AUC(0 to t) in ICR(CD-1) mouse at 5 mg/kg, iv measured upto 24 hrs by LC-MS/MS analysis. The format is ADME, organism-based. As to conditions: in vivo.
Data set [15] deals with Mus musculus. The experiment in a line: Antiinflammatory activity against imiquimod-induced psoriasis in BALB/c mouse model assessed as reduction in spleen enlargement at 0.3 to 1.2% administration as ointment pretreated with IMQ for 4 hrs followed by compound addition once daily from day 2 to 8. The format is functional, organism-based. As to conditions: dose 0.3-1.2 %, time 7.0 day.

For data set [16], the target named is 5-hydroxytryptamine receptor 1B (Homo sapiens) (UniProt P28222). The experiment in a line: Inhibition of 5-HT1B (unknown origin) at 10 uM relative to control.
5-hydroxytryptamine receptor 1B (Homo sapiens), sequence (P28222 whole entry): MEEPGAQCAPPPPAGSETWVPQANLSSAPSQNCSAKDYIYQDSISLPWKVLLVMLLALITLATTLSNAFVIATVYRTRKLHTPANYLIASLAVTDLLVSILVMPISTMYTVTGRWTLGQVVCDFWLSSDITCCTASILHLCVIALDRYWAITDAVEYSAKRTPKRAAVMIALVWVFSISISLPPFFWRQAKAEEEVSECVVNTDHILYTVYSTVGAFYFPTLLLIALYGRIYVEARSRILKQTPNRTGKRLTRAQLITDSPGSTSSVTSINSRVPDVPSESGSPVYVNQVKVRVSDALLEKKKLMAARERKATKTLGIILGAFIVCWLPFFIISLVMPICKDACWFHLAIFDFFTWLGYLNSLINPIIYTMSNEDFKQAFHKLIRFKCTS
Data set [17] can be described thus: Half-life in ICR(CD-1) mouse at 10 mg/kg, po measured upto 24 hrs by LC-MS/MS analysis. The data set is classed as ADME, organism-based. As to conditions: in vivo.
Data set [18] has as its target Cannabinoid receptor 1 (Homo sapiens) (UniProt P21554). The experiment in a line: Inhibition of CB1 (unknown origin) at 10 uM relative to control.
Data set [19] can be described thus: Tmax in ICR(CD-1) mouse at 10 mg/kg, po measured upto 24 hrs by LC-MS/MS analysis. The data set is classed as ADME, organism-based. The following applies: in vivo.
Data set [20] relates to RAW264.7. The experiment in a line: Upregulation of p-CREB1/CREB1 protein ratio in mouse RAW264.7 cells at 5 to 20 uM preincubated for 12 hrs followed by LPS stimulation for 4 hrs by Western blotting analysis. The data set is classed as functional, cell-based. The following applies: dose 5-20 µM, time 16.0 hrs.
In data set [21] the test system is RAW264.7. The experiment in a line: Downregulation of IL-1beta mRNA expression in LPS induced mouse RAW264.7 cells at 5 to 20 uM preincubated for 12 hrs followed by LPS stimulation for 4 hrs by RT-qPCR analysis. The data set is classed as functional, cell-based. As to conditions: dose 5-20 µM, time 16.0 hrs.
Data set [22] can be described thus: Toxicity in BALB/c mouse assessed as body weight loss at 0.3 to 1.2% administration as ointment once a day from day 2 to 8. As to conditions: in vivo, topical_or_ocular, 168 h, dose 0.3-1.2 %, time 7 day.
The nature of data set [23]: Metabolic stability in dog liver microsomes assessed as half-life preincubated for 2 hrs followed by NADPH regenerating agent addition and measured upto 4 hrs by LC-MS analysis. The following applies: time < 6 hrs. The data set is classed as ADME, Canis lupus familiaris, Microsome.
Data set [24] deals with RAW264.7. Description: Anti-inflammatory activity against LPS induced mouse RAW264.7 cells assessed as reduction in TNFalpha secretion incubated for 24 hrs by ELISA. The format is functional, cell-based. As to conditions: RAW264.7, 24 h.
Data set [25] can be described thus: Metabolic stability in rat liver microsomes assessed as half-life preincubated for 2 hrs followed by NADPH regenerating agent addition and measured upto 4 hrs by LC-MS analysis. The data set is classed as ADME, Microsome. As to conditions: time < 6 hrs.
Data set [26] can be described thus: Drug concentration in ICR(CD-1) mouse blood at 1.2% administered topically and measured after 2 hrs by LC-MS/MS analysis. The following applies: topical or ocular, route top, read-out: Ct. The format is ADME, tissue-based.
The nature of data set [27]: Apparent volume of distribution in ICR(CD-1) mouse at 5 mg/kg, iv measured upto 24 hrs by LC-MS/MS analysis. The data set is classed as ADME, organism-based. The following applies: in vivo, read-out: Vz.
The target of data set [28] is 3',5'-cyclic-AMP phosphodiesterase 4A (Homo sapiens, UniProt P27815). The experiment in a line: Inhibition of PDE4A (unknown origin).
3',5'-cyclic-AMP phosphodiesterase 4A, sequence (P27815 whole entry): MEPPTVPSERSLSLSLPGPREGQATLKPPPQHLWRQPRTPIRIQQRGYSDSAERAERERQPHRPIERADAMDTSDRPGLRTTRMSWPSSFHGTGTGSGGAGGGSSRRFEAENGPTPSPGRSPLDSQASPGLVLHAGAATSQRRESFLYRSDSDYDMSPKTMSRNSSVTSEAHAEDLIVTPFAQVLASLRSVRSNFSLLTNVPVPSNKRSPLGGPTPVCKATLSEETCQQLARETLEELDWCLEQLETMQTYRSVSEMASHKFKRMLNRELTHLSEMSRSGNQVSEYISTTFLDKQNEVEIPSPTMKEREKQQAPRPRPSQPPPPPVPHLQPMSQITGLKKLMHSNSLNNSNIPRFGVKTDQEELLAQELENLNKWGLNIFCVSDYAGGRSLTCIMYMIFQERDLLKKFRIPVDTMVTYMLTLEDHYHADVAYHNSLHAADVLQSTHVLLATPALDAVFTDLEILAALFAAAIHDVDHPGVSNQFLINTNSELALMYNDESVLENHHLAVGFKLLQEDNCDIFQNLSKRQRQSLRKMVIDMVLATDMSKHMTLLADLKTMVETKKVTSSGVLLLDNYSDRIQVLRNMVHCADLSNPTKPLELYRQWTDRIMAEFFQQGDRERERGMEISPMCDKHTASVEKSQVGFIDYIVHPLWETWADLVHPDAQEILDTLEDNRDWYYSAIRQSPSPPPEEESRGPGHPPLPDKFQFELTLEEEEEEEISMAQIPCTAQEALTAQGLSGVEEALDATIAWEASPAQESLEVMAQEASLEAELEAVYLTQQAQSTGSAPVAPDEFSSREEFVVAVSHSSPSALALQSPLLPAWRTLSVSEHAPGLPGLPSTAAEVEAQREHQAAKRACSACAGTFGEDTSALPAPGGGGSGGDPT
The nature of data set [29]: Cytotoxicity against human HaCaT cells incubated for 24 hrs by CCK8 assay. The data set is classed as toxicity, cell-based.
A short description of data set [30]: Oral bioavailability in ICR(CD-1) mouse at 10 mg/kg measured upto 24 hrs by LC-MS/MS analysis. The data set is classed as ADME, organism-based. As to conditions: in vivo.
Data set [31] is described as follows: Metabolic stability in mouse liver microsomes assessed as half-life preincubated for 2 hrs followed by NADPH regenerating agent addition and measured upto 4 hrs by LC-MS analysis. The following applies: time < 6 hrs. The format is ADME, Microsome.
A short description of data set [32]: AUC(0 to infinity) in ICR(CD-1) mouse at 5 mg/kg, iv measured upto 24 hrs by LC-MS/MS analysis. The format is ADME, organism-based. The following applies: in vivo.
For data set [33], the system named is RAW264.7. The experiment in a line: Downregulation of IL-17A mRNA expression in LPS induced mouse RAW264.7 cells at 5 to 20 uM preincubated for 12 hrs followed by LPS stimulation for 4 hrs by RT-qPCR analysis. The following applies: dose 5-20 µM, time 16.0 hrs. The format is functional, cell-based.
Another data set concerns HaCaT. Description: Anti-inflammatory activity against M5 induced human HaCaT cells assessed as reduction in TNFalpha secretion incubated for 24 hrs by ELISA. The format is functional, cell-based.
The nature of data set [34]: Cmax in ICR(CD-1) mouse at 10 mg/kg, po measured upto 24 hrs by LC-MS/MS analysis. The data set is classed as ADME, organism-based. The following applies: in vivo.
Data set [35] in a line: AUC(0 to infinity) in ICR(CD-1) mouse at 10 mg/kg, po measured upto 24 hrs by LC-MS/MS analysis. The data set is classed as ADME, organism-based. As to conditions: in vivo.
Data set [36] deals with Mus musculus. The experiment in a line: Antiinflammatory activity against imiquimod-induced psoriasis in BALB/c mouse model assessed as reduction in IL-1beta protein level at 1.2% administration as ointment pretreated with IMQ for 4 hrs followed by compound addition once daily from day 2 to 8 by ELISA. The data set is classed as functional, organism-based. The following applies: time 7.0 day.

In data set [37] the test system is Mus musculus. The experiment in a line: Antiinflammatory activity against imiquimod-induced psoriasis in BALB/c mouse model assessed as reduction in IL-17A protein level at 1.2% administration as ointment pretreated with IMQ for 4 hrs followed by compound addition once daily from day 2 to 8 by ELISA. As to conditions: time 7.0 day. The format is functional, organism-based.

The test system of data set [38] is Mus musculus. The experiment in a line: Antiinflammatory activity against imiquimod-induced psoriasis in BALB/c mouse model assessed as reduction in skin thickness at 0.3 to 1.2% administration as ointment pretreated with IMQ for 4 hrs followed by compound addition once daily from day 2 to 8 by H and E staining based assay. As to conditions: dose 0.3-1.2 %, time 7.0 day. The data set is classed as functional, organism-based.

In data set [39] the test system is RAW264.7. The experiment in a line: Downregulation of TNFalpha mRNA expression in LPS induced mouse RAW264.7 cells at 5 to 20 uM preincubated for 12 hrs followed by LPS stimulation for 4 hrs by RT-qPCR analysis. The following applies: dose 5-20 µM, time 16.0 hrs. The data set is classed as functional, cell-based.
For data set [40], the system named is RAW264.7. Description: Downregulation of IL-6 mRNA expression in LPS induced mouse RAW264.7 cells at 5 to 20 uM preincubated for 12 hrs followed by LPS stimulation for 4 hrs by RT-qPCR analysis. The data set is classed as functional, cell-based. As to conditions: dose 5-20 µM, time 16.0 hrs.
Data set [41] relates to RAW264.7. Description: Anti-inflammatory activity against LPS induced mouse RAW264.7 cells assessed as reduction in IL-6 secretion incubated for 24 hrs by ELISA. The data set is classed as functional, cell-based. As to conditions: RAW264.7, 24 h.
For data set [42], the target named is T1, 3',5'-cyclic-AMP phosphodiesterase 4D. Description: Inhibition of PDE4D (unknown origin).

pIC50: −log10 of the molar value. Activity calls are given as the source filed them. No cut-off for these calls is given here.

T1 sequence (Q08499 whole entry): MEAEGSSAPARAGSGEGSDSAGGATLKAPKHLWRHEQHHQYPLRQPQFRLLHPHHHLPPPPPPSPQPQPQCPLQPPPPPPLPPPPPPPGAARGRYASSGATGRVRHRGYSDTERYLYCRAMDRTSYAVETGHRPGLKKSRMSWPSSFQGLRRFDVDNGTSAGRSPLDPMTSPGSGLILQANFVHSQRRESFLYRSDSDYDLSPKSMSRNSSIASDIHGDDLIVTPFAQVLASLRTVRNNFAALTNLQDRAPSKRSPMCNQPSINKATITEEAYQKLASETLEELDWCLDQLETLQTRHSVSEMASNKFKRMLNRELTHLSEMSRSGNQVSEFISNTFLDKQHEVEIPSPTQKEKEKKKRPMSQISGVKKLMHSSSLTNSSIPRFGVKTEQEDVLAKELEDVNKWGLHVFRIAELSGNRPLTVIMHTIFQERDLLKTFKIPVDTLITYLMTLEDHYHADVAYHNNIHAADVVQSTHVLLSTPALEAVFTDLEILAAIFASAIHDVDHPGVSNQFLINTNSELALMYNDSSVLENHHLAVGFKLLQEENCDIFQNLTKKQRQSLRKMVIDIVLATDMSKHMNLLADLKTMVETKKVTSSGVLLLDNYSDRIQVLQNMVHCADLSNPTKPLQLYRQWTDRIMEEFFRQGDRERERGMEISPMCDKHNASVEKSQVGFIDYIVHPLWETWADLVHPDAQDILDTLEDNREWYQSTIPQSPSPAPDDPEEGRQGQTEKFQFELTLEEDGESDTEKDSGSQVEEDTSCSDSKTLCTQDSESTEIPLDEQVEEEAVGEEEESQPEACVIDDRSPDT
Cannabinoid receptor 1 (Homo sapiens), sequence (P21554 whole entry): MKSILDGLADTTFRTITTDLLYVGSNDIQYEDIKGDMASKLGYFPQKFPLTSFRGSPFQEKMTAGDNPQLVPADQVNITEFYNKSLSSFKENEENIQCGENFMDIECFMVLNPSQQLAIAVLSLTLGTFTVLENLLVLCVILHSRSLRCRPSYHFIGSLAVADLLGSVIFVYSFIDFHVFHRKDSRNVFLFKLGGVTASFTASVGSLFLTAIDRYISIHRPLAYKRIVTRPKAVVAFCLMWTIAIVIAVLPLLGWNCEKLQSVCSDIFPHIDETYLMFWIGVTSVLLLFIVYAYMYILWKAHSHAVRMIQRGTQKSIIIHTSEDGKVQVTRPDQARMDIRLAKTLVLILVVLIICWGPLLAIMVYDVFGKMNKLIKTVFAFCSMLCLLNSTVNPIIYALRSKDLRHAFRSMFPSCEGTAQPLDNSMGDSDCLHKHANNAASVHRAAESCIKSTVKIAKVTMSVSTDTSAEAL

With `N#Cc1ccc(Oc2ccc3c(c2)COB3O)cc1` [CRISABOROLE], in data set [1], the negative-log IC50 (pIC50) is 6.77.
Regarding `O=C(NCc1ncccn1)c1csc(-c2ccc(OC(F)F)c(OCC3CC3)c2)n1`, the values for the inhibition in data set [2], in data set [16] and in [18] were 53.8%, 56.6% and 51.4%, respectively. Moreover, the outcome in the data set with RAW264.7 [3], with Mus musculus [7], in the data set with Mus musculus [15], with RAW264.7 [20], in the data set on RAW264.7 [21] and in the data set with RAW264.7 [33] was Active. For the same compound, the outcome in the data set with Mus musculus [36], in the data set on Mus musculus [37], in the data set with Mus musculus [38], with RAW264.7 [39] and with RAW264.7 [40] was Active. In addition, the half-life in [4] was 296 min; in data set [8] it was 16.2 min; in data set [9] it was 25.6 min; in data set [17], 133 min; in data set [23] it was 62.1 min; in [25], 25.3 min. Besides, the half-life in data set [31] is 28.6 min. Further, the Activity entry in the data set listed under Mus musculus [5] was “Dose-Dependent Effect”; in data set [22], “Non-Toxic”. For the same compound, the exposure AUC(0-t) at 24 h in [6] was 41 ng·h/mL; in data set [14], 619 ng·h/mL. In addition, the CC50 at 24 h in data set [10] and in data set [29] was over 50 µM throughout. Also, the concentration at 1 h in data set [11] came to 0.34 ng/mL. In addition, in data set [12], the C0 at 24 h turned out to be 5240 ng/mL. In data set [13], the clearance is 135 mL/min/kg. In [19], the time of peak concentration (Tmax) was 64.8 min. Besides, the negative logarithm of the IC50 (pIC50) in the data set on RAW264.7 [24] is 4.47; in data set [28], 8.15; in the data set with HaCaT, 4.41; with RAW264.7 [41], 4.39. Further, the concentration at 2 h in data set [26] is 0.35 ng/mL. For the same compound, in [27], the Vd came to 3.12 L/kg. In [30], this compound yielded a bioavailability of 3.31%. In addition, the AUC(0-inf) in data set [32] amounted to 620 ng·h/mL; in data set [35] it was 51 ng·h/mL. In addition, the maximum concentration (Cmax) in data set [34] worked out at 31 ng/mL.
In [42], `CCOc1cc([C@@H](CS(C)(=O)=O)N2C(=O)c3csc(NC(C)=O)c3C2=O)ccc1OC` had a pIC50 of 6.94.
